Test results from patent publication US20210393932A1, “DERMAL PATCHES AND GLASS SWABS FOR APPLICATION OF TOPICAL IMMUNOSENSITIZERS” (Squarex, LLC, priority 2020, published 2021).
Values joined by “and” are separate entries in the source; they are usually repeats but may differ in a detail not shown here. Equal entries are not always repeated.

Experiments:
[1] = test system: herpes labialis outbreaks; experiment: Placebo-controlled Phase 1 clinical trial of SADBE in subjects with frequent herpes labialis outbreaks; format: in vivo, human
Description: Methods This exploratory, double-blind, randomized placebo-controlled study was conducted between November 2013 and September 2015 at Massachusetts General Hospital. Healthy adults, ages 18 to 69 years, who self-reported having 6 or more episodes of herpes labialis in the previous 12 months received a topical sensitization dose on the arm at the initial visit, and then received a topical treatment dose applied to a lesion during the first 2 herpes labialis episodes occurring at least 2 weeks after the sensitization dose. Participants were randomized 1:1:1 to receive dimethyl sulfoxide alone (placebo), 2.0% SADBE sensitization and 0.5% SADBE treatment doses, or 2.0% SADBE sensitization, 0.2% SADBE treatment doses. The study was approved by Partners Human Research Committee institutional review board, and all participants provided their written informed consent (clinicaltrials.gov identification No. NCT01971385). Results. Fifty-four patients were enrolled into the study; 43 patients had at least 1 form of contact (either in person or by phone) with research staff following the sensitizing dose and were included in the efficacy data analysis. The data analyzed involves 9 males and 34 females.
One planned primary end point was days to the next herpes labialis outbreak after the last treatment dose. […] Thus, we analyzed time to next outbreak after the sensitization dose. Data from patients who never experienced a first outbreak following sensitization were censored on the last available follow-up date and Kaplan-Meier time-to-event curves were estimated and graphed (FIG. 3). The median time to event for the placebo group was 40 days versus more than 122 days for the 2.0% SADBE group, which difference was highly significant (P=0.009).

[2] = test system: pig skin; experiment: Skin irritation (erythema, edema) after SADBE dermal patches in swine; format: in vivo; settings: for Average high erythema score: across all patches, doses and exposure times
From the text: An additional purpose was to assess immediate and delayed skin irritation, including erythema and edema on the pig skin over 4 weeks after dosing. Skin irritation was scored as in Table 5. [table] It was scored 3 times per week at each patch application site for four weeks. The scores shown are the erythema score at the time of patch removal, and then the highest of the 3 scores taken each week for each patch site.

[3] = test system: guinea pig skin; experiment: Cutaneous irritation (Draize, Primary Irritation Index) after SADBE dermal patch in guinea pig; format: in vivo; settings: for time to return to non-irritating levels post-dermal-application / time of peak cutaneous irritation: re-challenge
Description: Thirty (30) guinea pigs (15 female and 15 male) were utilized for this nonGLP study. Prior to and post dosing (dermal patches loaded with 20 microliters of 2, 6, or 18% SADBE drug solution) body weights, group food consumption, and Draize scoring for erythema, eschar formation, and edema at the dose site were be recorded. The dermal patch loaded with SADBE was applied to animals, and left in place for ˜12 hours plus/minus 1 hour. Following the ˜12 hour dosing period, patch sites was assessed by Draize scoring. […] After the 28 days assessment period, re challenge was performed, a second patch (not treated during the induction phase) was applied and assessed by Draize scoring.
Cutaneous irritation at the test site was observed and scored each day of the study by the Draize Scale for both Erythema & Eschar and Edema. The scale for each is in Tables 9 and 10, each on a 0-4 scale. The cumulative Erythema & Eschar and Edema score was the Primary Irritation Index score, which would therefore be on a 0-8 scale.
To assess the effect of the test article, SADBE (2%, 6%, and 18% in DMSO), on cutaneous skin irritation potential and sensitivity in guinea pig, Draize scoring system was used for dose site evaluation for erythema and eschar responses and for Edema. The test article (20 ul) was loaded on a dermal patch and applied to shaved guinea pig skin for 12 hrs (induction phase). The first dose site evaluation was performed for 30 days post application. A second dose was applied and dose site evaluation was also performed for approximately 5 weeks (challenge phase).
The Primary Irritation Index (pII) for each test article dose was calculated to assess the irritation potential. The Primary Irritation Index (pII) is the mean of the primary irritation score. The primary irritation score is the sum of the erythema/eschar score and the edema score, resulting in a maximal irritation potential of 8. The daily primary irritation index (pII) for each test article dose over the course of the study was calculated (FIG. 4). The pII is used to categorize the test article treatments as negligible to not irritating (0-0.9), slight (0.9-1.9), moderate (2-4.9) or severe (5-8) irritation potential. […] (FIG. 4.)

[4] = Residual SADBE and SAMBE in patches after 12 hours on mini-pigs; format: in vivo, Gottingen miniswine; settings: for SADBE as % of expected (remaining in patch): 12 hours on mini-pigs
Description: Patches were removed from the pigs at the indicated times and immediately the reservoir portion of the patch was cut out and placed in a 50 ml tube with 10 ml of DMSO. The tubes of DMSO with patches were transported to the Squarex laboratory, shaken at 200 rpm for 30 minutes to overnight, and then the DMSO from each tube was placed in an injection vial and analyzed for SADBE content by HPLC on a C18 column with the program SADBE3-50 ul. SADBE elutes in this program at about 24.0 minutes and absorbs at 255 nm, so the area of the 24.0 min peak at 255 nm was used to quantify SADBE. The SADBE degradation product squaric acid monobutyl ester (SAMBE) was also quantified by 255 nm area under the curve at the elution time of 12.7 minutes.

SMILES: CCCCOc1c(OCCCC)c(=O)c1=O [SADBE, squaric acid dibutyl ester]
- median time to next herpes labialis outbreak after the sensitization dose ([1]; 2.0% SADBE sensitization dose on arm, Kaplan-Meier, placebo 40 days, P=0.009): more than 122 days
- adverse event: itching and redness at the sensitization site ([1]; 2.0% SADBE, placebo 2 patients): 13 patients
- adverse event: autosensitization dermatitis ([1]; exposed to the SADBE sensitization dose for 24 hours): 1 patient
- tolerability ([1]; overall, patients): well tolerated
- patients who did not experience another outbreak after sensitization ([1]; patients who received 2.0% SADBE for sensitization): 16 of 28
- Average erythema score weeks 0-3 ([2]; 20 ul of 2% SADBE, 1 hour exposure): 0
- Average erythema score weeks 0-3 ([2]; 20 ul of 2% SADBE, 3 hours exposure): 0.83
- Average erythema score weeks 0-3 ([2]; 20 ul of 2% SADBE, 6 hours exposure): 0.92
- Average erythema score weeks 0-3 ([2]; 20 ul of 2% SADBE, 24 hours exposure): 1.5
- Average erythema score weeks 0-3 ([2]; 50 ul of 2% SADBE, 1 hour exposure): 1.5
- Average erythema score weeks 0-3 ([2]; 50 ul of 2% SADBE, 3 hours exposure): 2.125
- Average erythema score weeks 0-3 ([2]; 50 ul of 2% SADBE, 6 hours exposure): 1.92
- Average erythema score weeks 0-3 ([2]; 50 ul of 2% SADBE, 24 hours exposure): 2.5
- Average erythema score weeks 0-3 ([2]; 80 ul of 2% SADBE, 1 hour exposure): 1.375
- Average erythema score weeks 0-3 ([2]; 80 ul of 2% SADBE, 3 hours exposure): 1.625
- Average erythema score weeks 0-3 ([2]; 80 ul of 2% SADBE, 6 hours exposure): 1.25
- Average erythema score weeks 0-3 ([2]; 80 ul of 2% SADBE, 24 hours exposure): 2.25
- Average high erythema score ([2]; Week 1): 1.05
- Average high erythema score ([2]; Week 2): 2.60
- Average high erythema score ([2]; Week 3): 1.73
- Average high erythema score ([2]; Week 4): 0.00
- edema at drug application site ([2]; any site, any time after patch application and removal): No pigs had edema
- Average high erythema score ([2]; at patch removal): 0.63
- irritation category by Primary Irritation Index (pII) ([3]; 2% SADBE, 20 ul patch, 12 h, first dose): slightly irritating
- duration of slight cutaneous irritation ([3]; 2% SADBE, induction): > 17 days
- time to return to non-irritating levels post-dermal-application ([3]; 2% SADBE): ~9 days
- irritation category by Primary Irritation Index (pII) ([3]; 2% SADBE, re-challenge (second dose)): moderately irritating
- duration of slight to moderate cutaneous irritation ([3]; 2% SADBE, re-challenge at naive site): ~5 days
- irritation category by Primary Irritation Index (pII) ([3]; 6% SADBE, 20 ul patch, 12 h, first dose): moderately irritating
- duration of moderate cutaneous irritation ([3]; 6% SADBE, induction): ~18 days
- time to return to slight irritation and not irritating levels ([3]; 6% SADBE, induction): ~23 days
- time of peak cutaneous irritation ([3]; 6% SADBE): ~5 days
- time to return to non-irritating levels post-dermal-application ([3]; 6% SADBE): ~14 days
- irritation category by Primary Irritation Index (pII) ([3]; 6% SADBE, re-challenge (second dose)): moderately irritating
- irritation category by Primary Irritation Index (pII) ([3]; 18% SADBE, 20 ul patch, 12 h, first dose): severely irritating
- duration of moderate to severe cutaneous irritation ([3]; 18% SADBE, induction): ~21 days
- time to return to slight irritation and not irritating levels post-dosing ([3]; 18% SADBE, induction): ~27 days
- time of peak cutaneous irritation ([3]; 18% SADBE): ~8 days
- time to return to non-irritating levels post-dermal-application ([3]; 18% SADBE): ~19 days
- irritation category by Primary Irritation Index (pII) ([3]; 18% SADBE, re-challenge (second dose)): moderately irritating
- SADBE apparently transferred into the mini pig skin ([4]; 2% patches, 12 hours): about 89%
- SADBE as % of expected (remaining in patch) ([4]; 2% patches, individual animals): 7.0% and 14.6%
- SADBE as % of expected (remaining in patch) ([4]; 6% patches, average of 2 animals): 35% and 35.4%
- SADBE as % of expected (remaining in patch) ([4]; 6% patches, individual animals): 29.9% and 40.8%
- SADBE as % of expected (remaining in patch) ([4]; 18% patches, average of 2 animals): 65% and 65.5%
- SADBE as % of expected (remaining in patch) ([4]; 18% patches, individual animals): 65.2% and 65.8%
